# From US9617259B2, “Histone deacetylase inhibitors and compositions and methods of use thereof” (CHDI Foundation, Inc., priority 2013, dated 2017)
# Molecular target: human catalytic domain HDAC4 protein (amino acids 648-1032) (Homo sapiens (Human), UniProt P56524)
# Assay: Inhibition of HDAC4 catalytic domain enzymatic activity, fluorogenic substrate Boc-Lys(Tfa)-AMC
# Settings: read-out: Biochemical HDAC-4 IC50
# From the text: Analysis of Inhibition of HDAC4 with Class IIa Histone Deacetylase (HDAC) Inhibitors
# The potency of Class IIa Histone Deacetylase (HDAC) inhibitors is quantified by measuring the Histone Deacetylase 4 (HDAC4) catalytic domain enzymatic activity using the fluorogenic substrate, Boc-Lys(Tfa)-AMC. The substrate is deacetylated to Boc-Lys-AMC by HDAC4. Cleavage by trypsin results in the release of the fluorophore AMC from the deacetylated substrate. The fluorescence of the sample is directly related to the histone deacetylase activity in the sample.
# Serial dilutions of the HDAC inhibitors and control reference compound (1-(5-(3-((4-(1,3,4-oxadiazol-2-yl)phenoxy)methyl)-1,2,4-oxadiazol-5-yl)thiophen-2-yl)-2,2,2-trifluoroethanone) are made by first resuspending the lyophilized compound to a final concentration of 10 mM in 100% dimethyl sulfoxide (DMSO). Stocks of 60 μl aliquots of the 10 mM compound in DMSO are prepared and stored at −20° C. From one stock aliquot of each compound to be tested and the reference compound, a 16-point serial dilution is prepared according to
# 2 μl (200×) of each diluted solution and each control (full activity: 100% DMSO alone or full inhibition 1 mM) is stamped into V-bottomed polypropylene 384-well compound plates using either the Bravo (384-well head from Agilent) or 12.5 μl 16-channel Matrix multi-channel pipette (Matrix Technologies Ltd).
# A working solution of enzyme is prepared from a 500 μg/ml stock aliquot of HDAC4 catalytic domain (thawed on ice) diluted to 0.2 μg/ml with assay buffer (50 mM Tris-HCl, 137 mM NaCl, 2.7 mM KCl, and 1 mM MgCl2 at pH 8 and equilibrated to room temperature) just prior to the addition of the enzyme to the assay.
# 5× (50 μM) substrate is prepared just prior to the addition to the assay. A 1 mM substrate stock is made by diluting a 100 mM Boc-Lys(Tfa)-AMC in DMSO solution 1:100 by adding it drop-wise to assay buffer (equilibrated to room temperature) while vortexing at slow speed to prevent precipitation. The 5× substrate is prepared by diluting the 1 mM substrate solution 1:20 by adding it drop-wise to assay buffer (equilibrated to room temperature) while vortexing at slow speed to prevent precipitation.
# 3× (30 μM) Developer/Stop Solution is prepared just prior to addition to the plate by diluting a stock solution of 10 mM reference compound 1:333 in 25 mg/ml trypsin (PAA Laboratories Ltd.) equilibrated to room temperature.
# 5 μl of each solution of 1:20 diluted compound from above is transferred to a clear bottomed, black, 384-well assay plate using the Bravo or the Janus (384-well MDT head from Perkin Elmer). Using a 16-channel Matrix multi-channel pipette, 35 μl of the working solution of HDAC4 catalytic domain enzyme (0.2 μg/ml in assay buffer) is transferred to the assay plate. The assay is then started by adding 10 μl of 5× (50 μM) substrate to the assay plates using either the Bravo, Janus or 16-channel Matrix multi-channel pipette. The assay plate is then shaken for two minutes on an orbital shaker at 900 rpm (rotations per minute). Next the plate is incubated for 15 minutes at 37° C. The reaction is stopped by adding 25 al of 3× (30 μM) developer/stop solution to the assay plates using either the Bravo, Janus or a 16-channel Matrix multi-channel pipette. Assay plates are then shaken for 5 minutes on an orbital shaker at 1200 rpm. Next, the assay plates are incubated at 37° C. for 1 hour in a tissue culture incubator. Finally, the fluorescence is measured (Excitation: 355 nm, Emission: 460 nm) using PerkinElmer EnVision in top read mode.
# Sequence of human catalytic domain HDAC4 protein (amino acids 648-1032) (P56524 648-1032): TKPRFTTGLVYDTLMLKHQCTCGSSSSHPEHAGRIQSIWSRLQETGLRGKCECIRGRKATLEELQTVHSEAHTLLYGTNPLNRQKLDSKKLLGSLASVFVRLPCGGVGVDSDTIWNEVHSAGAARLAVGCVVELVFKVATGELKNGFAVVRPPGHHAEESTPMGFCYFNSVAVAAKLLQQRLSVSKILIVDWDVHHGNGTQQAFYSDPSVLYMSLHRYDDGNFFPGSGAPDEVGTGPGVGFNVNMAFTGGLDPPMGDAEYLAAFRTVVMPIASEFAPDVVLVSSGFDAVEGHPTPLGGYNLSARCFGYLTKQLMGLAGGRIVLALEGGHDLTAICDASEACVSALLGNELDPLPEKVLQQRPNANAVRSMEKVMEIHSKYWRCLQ
row,IC50 [nM],SMILES
1,7600,"Cc1c(F)cccc1[C@]1(C(=O)NO)C=C(c2ccccc2)CC1 [Example 1, (R)-1-(3-fluoro-2-methylphenyl)-N-hydroxy-3-phenylcyclopent-2-enecarboxamide]"
2,20,"Cc1c(F)cccc1[C@@]1(C(=O)NO)C=C(c2ccccc2)CC1 [Example 2, (S)-1-(3-fluoro-2-methylphenyl)-N-hydroxy-3-phenylcyclopent-2-enecarboxamide]"
3,230,"Cc1ccccc1C1=C[C@@](C(=O)NO)(c2cccc(F)c2C)CC1 [Example 3, (R)-1-(3-fluoro-2-methyl-phenyl)-N-hydroxy-3-(o-tolyl)cyclopent-2-ene-1-carboxamide]"
4,20,"Cc1ccccc1C1=C[C@](C(=O)NO)(c2cccc(F)c2C)CC1 [Example 4, (S)-1-(3-fluoro-2-methyl-phenyl)-N-hydroxy-3-(o-tolyl)cyclopent-2-ene-1-carboxamide]"
5,670,"Cc1c(F)cccc1[C@]1(C(=O)NO)C=C(c2cncc(F)c2)CC1 [Example 5, (R)-1-(3-fluoro-2-methylphenyl)-3-(5-fluoropyridin-3-yl)-N-hydroxycyclopent-2-enecarboxamide]"
6,10,"Cc1c(F)cccc1[C@@]1(C(=O)NO)C=C(c2cncc(F)c2)CC1 [Example 6, (S)-1-(3-fluoro-2-methylphenyl)-3-(5-fluoropyridin-3-yl)-N-hydroxycyclopent-2-enecarboxamide]"
7,> 50000,"Cc1c(F)cccc1[C@]1(C(=O)NO)C=C(c2cnccn2)CC1 [Example 7, (R)-1-(3-fluoro-2-methylphenyl)-N-hydroxy-3-(pyrazin-2-yl)cyclopent-2-ene carboxamide]"
8,20,"Cc1c(F)cccc1[C@@]1(C(=O)NO)C=C(c2cncc(Cl)c2)CC1 [Example 11, (S)-3-(5-chloropyridin-3-yl)-1-(3-fluoro-2-methylphenyl)-N-hydroxycyclopent-2-enecarboxamide]"
9,10,"Cc1c(F)cccc1[C@@]1(C(=O)NO)C=C(c2ccc3nccnc3c2)CC1 [Example 12, (S)-1-(3-fluoro-2-methylphenyl)-N-hydroxy-3-(quinoxalin-6-yl)cyclopent-2-enecarboxamide]"
10,40,"Cc1c(F)cccc1[C@@]1(C(=O)NO)C=C(c2ccnc(C(F)(F)F)c2)CC1 [Example 13, (S)-1-(3-fluoro-2-methylphenyl)-N-hydroxy-3-(2-(trifluoromethyl)pyridin-4-yl)cyclopent-2-enecarboxamide]"
11,30,"Cc1c(F)cccc1[C@@]1(C(=O)NO)C=C(c2cncnc2)CC1 [Example 14, (S)-1-(3-fluoro-2-methylphenyl)-N-hydroxy-3-(pyrimidin-5-yl)cyclopent-2-enecarboxamide]"
12,40,"Cc1c(F)cccc1[C@@]1(C(=O)NO)C=C(c2ccc(F)cn2)CC1 [Example 15, (S)-1-(3-fluoro-2-methylphenyl)-3-(5-fluoropyridin-2-yl)-N-hydroxycyclopent-2-enecarboxamide]"
13,20,"Cc1c(F)cccc1[C@@]1(C(=O)NO)C=C(c2ccc(C(F)(F)F)nc2)CC1 [Example 16, (S)-1-(3-fluoro-2-methylphenyl)-N-hydroxy-3-(6-(trifluoromethyl)pyridin-3-yl)cyclopent-2-enecarboxamide]"
14,30,"Cc1c(F)cccc1[C@@]1(C(=O)NO)C=C(c2cncc(C(F)(F)F)c2)CC1 [Example 17, (S)-1-(3-fluoro-2-methylphenyl)-N-hydroxy-3-(5-(trifluoromethyl)pyridin-3-yl)cyclopent-2-enecarboxamide]"
15,20,"Cc1c(F)cccc1[C@@]1(C(=O)NO)C=C(c2cnn(C(F)F)c2)CC1 [Example 18, (S)-3-(1-(difluoromethyl)-1H-pyrazol-4-yl)-1-(3-fluoro-2-methylphenyl)-N-hydroxycyclopent-2-enecarboxamide]"
16,40,"Cc1c(F)cccc1[C@@]1(C(=O)NO)C=C(c2cc(F)cnc2C2CC2)CC1 [Example 19, (S)-3-(2-cyclopropyl-5-fluoropyridin-3-yl)-1-(3-fluoro-2-methylphenyl)-N-hydroxycyclopent-2-enecarboxamide]"
17,70,"Cc1c(F)cccc1[C@@]1(C(=O)NO)C=C(c2ccc3nc(C(F)(F)F)cnc3c2)CC1 [Example 20, (S)-1-(3-fluoro-2-methylphenyl)-N-hydroxy-3-(2-(trifluoromethyl)quinoxalin-6-yl)cyclopent-2-enecarboxamide]"
18,10,"Cc1c(F)cccc1[C@@]1(C(=O)NO)C=C(c2ccn3ccnc3c2)CC1 [Example 21, (S)-1-(3-fluoro-2-methylphenyl)-N-hydroxy-3-(imidazo[1,2-a]pyridin-7-yl)cyclopent-2-enecarboxamide]"
19,30,"Cc1c(F)cccc1[C@@]1(C(=O)NO)C=C(c2ccc3onc(C)c3c2)CC1 [Example 22, (S)-1-(3-fluoro-2-methylphenyl)-N-hydroxy-3-(3-methylbenzo[d]isoxazol-5-yl)cyclopent-2-enecarboxamide]"
20,40,"COc1ncc(C2=C[C@](C(=O)NO)(c3cccc(F)c3C)CC2)cc1F [Example 23, (S)-1-(3-fluoro-2-methylphenyl)-3-(5-fluoro-6-methoxypyridin-3-yl)-N-hydroxycyclopent-2-enecarboxamide]"
21,20,"Cc1c(F)cccc1[C@@]1(C(=O)NO)C=C(c2cnc(C3CC3)nc2)CC1 [Example 24, (S)-3-(2-cyclopropylpyrimidin-5-yl)-1-(3-fluoro-2-methylphenyl)-N-hydroxycyclopent-2-enecarboxamide]"
22,10,"Cc1ccc(C2=C[C@](C(=O)NO)(c3cccc(F)c3C)CC2)cn1 [Example 25, (S)-1-(3-fluoro-2-methylphenyl)-N-hydroxy-3-(6-methylpyridin-3-yl)cyclopent-2-enecarboxamide]"
23,10,"Cc1ncc(C2=C[C@](C(=O)NO)(c3cccc(F)c3C)CC2)cc1Cl [Example 26, (S)-3-(5-chloro-6-methylpyridin-3-yl)-1-(3-fluoro-2-methylphenyl)-N-hydroxycyclopent-2-enecarboxamide]"
24,20,"Cc1c(F)cccc1[C@@]1(C(=O)NO)C=C(c2ccnn2C)CC1 [Example 27, (S)-1-(3-fluoro-2-methylphenyl)-N-hydroxy-3-(1-methyl-1H-pyrazol-5-yl)cyclopent-2-enecarboxamide]"
25,20,"Cc1c(F)cccc1[C@@]1(C(=O)NO)C=C(c2cnn(CC(F)(F)F)c2)CC1 [Example 28, (S)-1-(3-fluoro-2-methylphenyl)-N-hydroxy-3-(1-(2,2,2-trifluoroethyl)-1H-pyrazol-4-yl)cyclopent-2-enecarboxamide]"
26,30,"Cc1c(F)cccc1[C@@]1(C(=O)NO)C=C(c2cccc3cnsc23)CC1 [Example 29, (S)-3-(benzo[d]isothiazol-7-yl)-1-(3-fluoro-2-methylphenyl)-N-hydroxycyclopent-2-enecarboxamide]"
27,12300,"O=C(NO)C1(c2ccccc2)CC=CC1 [Example 30, N-hydroxy-1-phenyl-cyclopent-3-enecarboxamide]"
28,8300,"O=C(NO)C1(c2ccccc2F)CC=CC1 [Example 31, 1-(2-fluorophenyl)-N-hydroxy-cyclopent-3-enecarboxamide]"
29,40,"Cc1c(F)cccc1[C@@]1(C(=O)NO)C=C(C2CC2)CC1 [Example 32, (S)-3-cyclopropyl-1-(3-fluoro-2-methylphenyl)-N-hydroxycyclopent-2-enecarboxamide]"
